Reference: ChEMBL document CHEMBL4364276, “Discovery of 4-phenyl-2H-benzo[b][1,4]oxazin-3(4H)-one derivatives as potent and orally active PI3K/mTOR dual inhibitors” (Eur J Med Chem, 2019)

Columns and labels:
[1] = Oral bioavailability in Sprague-Dawley rat at 10 mg/kg measured upto 24 hrs by LC-MS/MS analysis; type: ADME, organism-based; settings: in vivo
[2] = target: Tyrosine-protein kinase Fgr (Homo sapiens) (UniProt P09769); assay: Inhibition of human FGR at 100 nM using poly[Glu:Tyr] (4:1) as substrate by [gamma-33P]-ATP assay
[3] = target: CDK18/Cyclin Y (Homo sapiens) (UniProt Q07002+Q8ND76); assay: Inhibition of human CDK18/cyclin-Y at 100 nM using RB protein as substrate by [gamma-33P]-ATP assay; type: protein-complex assay
[4] = target: CDK6/cyclin D3 (Homo sapiens) (UniProt P30281+Q00534); assay: Inhibition of human CDK6/cyclin-D3 at 100 nM using RB protein as substrate by [gamma-33P]-ATP assay; type: protein-complex assay
[5] = target: [Pyruvate dehydrogenase (acetyl-transferring)] kinase isozyme 4, mitochondrial (Homo sapiens) (UniProt Q16654); assay: Inhibition of human PDK4 at 100 nM using MBP as substrate by [gamma-33P]-ATP assay
[6] = target: Serine/threonine-protein kinase 17A (Homo sapiens) (UniProt Q9UEE5); assay: Inhibition of human DRAK1 at 100 nM using KKLNRTLSFAEPG as substrate by [gamma-33P]-ATP assay
[7] = target: Cyclin-dependent kinase 4/cyclin D1 (Homo sapiens) (UniProt P11802+P24385); assay: Inhibition of human CDK4/cyclin-D1 at 100 nM using RB protein as substrate by [gamma-33P]-ATP assay; type: protein-complex assay
[8] = tested on: HepG2; assay: cells; settings: Homo sapiens, HepG2, 72 h
[9] = target: Activin receptor type-1B (Homo sapiens) (UniProt P36896); assay: Inhibition of human ALK4 at 100 nM using casein as substrate by [gamma-33P]-ATP assay
[10] = target: MAP kinase-interacting serine/threonine-protein kinase 2 (Homo sapiens) (UniProt Q9HBH9); assay: Inhibition of human MNK2 at 100 nM using MBP as substrate by [gamma-33P]-ATP assay
[11] = target: Serine/threonine-protein kinase PLK3 (Homo sapiens) (UniProt Q9H4B4); assay: Inhibition of human PLK3 at 100 nM using casein as substrate by [gamma-33P]-ATP assay
[12] = target: CDK6/cyclin D1 (Homo sapiens) (UniProt P24385+Q00534); assay: Inhibition of human CDK6/cyclin-D1 at 100 nM using RB protein as substrate by [gamma-33P]-ATP assay; type: protein-complex assay
[13] = target: PAS domain-containing serine/threonine-protein kinase (Homo sapiens) (UniProt Q96RG2); assay: Inhibition of human PASK at 100 nM using KKLNRTLSFAEPG as substrate by [gamma-33P]-ATP assay
[14] = target: Calcium/calmodulin-dependent protein kinase type II subunit alpha (Homo sapiens) (UniProt Q9UQM7); assay: Inhibition of human CAMK2A at 100 nM using KKALRRQETVDAL as substrate by [gamma-33P]-ATP assay
[15] = target: Platelet-derived growth factor receptor alpha (Homo sapiens) (UniProt P16234); assay: Inhibition of human PDGFRalpha at 100 nM using poly[Glu:Tyr] (4:1) as substrate by [gamma-33P]-ATP assay
[16] = target: Ephrin type-B receptor 3 (Homo sapiens) (UniProt P54753); assay: Inhibition of human EPHB3 at 100 nM using poly[Glu:Tyr] (4:1) as substrate by [gamma-33P]-ATP assay
[17] = target: Vascular endothelial growth factor receptor 2 (Homo sapiens) (UniProt P35968); assay: Inhibition of human KDR at 100 nM using poly[Glu:Tyr] (4:1) as substrate by [gamma-33P]-ATP assay
[18] = target: Phosphatidylinositol 4,5-bisphosphate 3-kinase catalytic subunit alpha isoform (Homo sapiens, UniProt P42336); assay: Inhibition of recombinant human full length N-terminal GST-tagged PI3Kalpha (1 to 1068 residues)/PIK3R1 (1 to 724 residues) expressed in baculovirus expression system using PIP2 as substrate incubated for 1 hr by ADP-Glo assay
[19] = target: Casein kinase I isoform alpha (Homo sapiens) (UniProt P48729); assay: Inhibition of human CK1a1 at 100 nM using KRRRAL[pS]VASLPGL as substrate by [gamma-33P]-ATP assay
[20] = target: CDK3/Cyclin-E2 (Homo sapiens) (UniProt O96020+Q00526); assay: Inhibition of human CDK3/cyclin-E2 at 100 nM using histone H1 as substrate by [gamma-33P]-ATP assay; type: protein-complex assay
[21] = target: AMP-activated protein kinase (AMPK) alpha-1/beta-1/gamma-1 (Homo sapiens) (UniProt P54619+Q9Y478+Q13131); assay: Inhibition of human AMPK (A1/B1/G1) at 100 nM using HMRSAMSGLHLVKRR as substrate by [gamma-33P]-ATP assay; type: protein-complex assay
[22] = target: Serine/threonine-protein kinase WNK1 (Homo sapiens) (UniProt Q9H4A3); assay: Inhibition of human WNK1 at 100 nM using MBP as substrate by [gamma-33P]-ATP assay
[23] = tested on: A549; assay: Antitumor activity against human A549 cells xenografted in ig dosed BALB/c nude mouse assessed as tumor growth inhibition administered for 30 days measured every 3 days during compound dosing relative to control; type: functional, organism-based
[24] = target: Dual specificity tyrosine-phosphorylation-regulated kinase 3 (Homo sapiens) (UniProt O43781); assay: Inhibition of human DYRK3 at 100 nM using RRRFRPASPLRGPPK as substrate by [gamma-33P]-ATP assay
[25] = target: Serine/threonine-protein kinase BRSK2 (Homo sapiens) (UniProt Q8IWQ3); assay: Inhibition of human BRSK2 at 100 nM using KKLNRTLSFAEPG as substrate by [gamma-33P]-ATP assay
[26] = target: Calcium/calmodulin-dependent protein kinase kinase 2 (Homo sapiens) (UniProt Q96RR4); assay: Inhibition of human CAMKK2 at 100 nM using MBP as substrate by [gamma-33P]-ATP assay
[27] = target: Serine/threonine-protein kinase mTOR (Homo sapiens, UniProt P42345); assay: Inhibition of recombinant human N-terminal FLAG-tagged mTOR (1362 to end residues) using Ulight-4E-BP1 as substrate incubated for 30 mins by fluorescence assay
[28] = target: CDK2/Cyclin A2 (Homo sapiens) (UniProt P24941+P20248); assay: Inhibition of human CDK2/cyclin-A at 100 nM using histone H1 as substrate by [gamma-33P]-ATP assay; type: protein-complex assay
[29] = target: Homeodomain-interacting protein kinase 4 (Homo sapiens) (UniProt Q8NE63); assay: Inhibition of human HIPK4 at 100 nM using MBP as substrate by [gamma-33P]-ATP assay
[30] = target: RAC-alpha serine/threonine-protein kinase (Homo sapiens) (UniProt P31749); assay: Inhibition of human AKT1 at 100 nM using KGSGSGRPRTSSFAEG as substrate by [gamma-33P]-ATP assay
Chain of RAC-alpha serine/threonine-protein kinase (Homo sapiens) (P31749 whole entry): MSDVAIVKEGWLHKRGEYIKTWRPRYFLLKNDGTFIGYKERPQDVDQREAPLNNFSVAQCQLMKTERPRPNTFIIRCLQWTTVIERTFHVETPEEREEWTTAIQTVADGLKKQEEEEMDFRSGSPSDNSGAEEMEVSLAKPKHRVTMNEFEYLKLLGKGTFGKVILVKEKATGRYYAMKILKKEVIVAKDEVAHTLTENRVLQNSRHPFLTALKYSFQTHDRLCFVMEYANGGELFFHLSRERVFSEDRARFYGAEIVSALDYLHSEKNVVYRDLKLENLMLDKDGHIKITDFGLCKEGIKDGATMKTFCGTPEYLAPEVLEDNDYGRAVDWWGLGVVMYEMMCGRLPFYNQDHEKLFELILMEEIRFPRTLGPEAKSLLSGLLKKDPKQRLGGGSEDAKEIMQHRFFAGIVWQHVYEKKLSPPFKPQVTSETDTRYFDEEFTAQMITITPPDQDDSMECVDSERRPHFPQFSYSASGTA

Chain of Calcium/calmodulin-dependent protein kinase type II subunit alpha (Homo sapiens) (Q9UQM7 whole entry): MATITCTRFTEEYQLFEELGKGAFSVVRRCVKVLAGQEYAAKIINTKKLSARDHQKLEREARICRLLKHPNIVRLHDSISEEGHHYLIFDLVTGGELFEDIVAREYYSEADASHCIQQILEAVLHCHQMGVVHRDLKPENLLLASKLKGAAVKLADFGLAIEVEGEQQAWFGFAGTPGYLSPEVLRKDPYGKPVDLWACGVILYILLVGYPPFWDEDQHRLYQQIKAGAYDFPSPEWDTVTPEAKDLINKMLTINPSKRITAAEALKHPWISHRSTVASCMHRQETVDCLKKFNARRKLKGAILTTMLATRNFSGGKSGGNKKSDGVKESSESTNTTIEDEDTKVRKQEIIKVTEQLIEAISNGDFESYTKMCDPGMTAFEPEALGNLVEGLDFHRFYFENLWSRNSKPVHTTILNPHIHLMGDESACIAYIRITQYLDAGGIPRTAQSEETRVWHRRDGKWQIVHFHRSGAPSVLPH
Chain of MAP kinase-interacting serine/threonine-protein kinase 2 (Homo sapiens) (Q9HBH9 whole entry, looked up): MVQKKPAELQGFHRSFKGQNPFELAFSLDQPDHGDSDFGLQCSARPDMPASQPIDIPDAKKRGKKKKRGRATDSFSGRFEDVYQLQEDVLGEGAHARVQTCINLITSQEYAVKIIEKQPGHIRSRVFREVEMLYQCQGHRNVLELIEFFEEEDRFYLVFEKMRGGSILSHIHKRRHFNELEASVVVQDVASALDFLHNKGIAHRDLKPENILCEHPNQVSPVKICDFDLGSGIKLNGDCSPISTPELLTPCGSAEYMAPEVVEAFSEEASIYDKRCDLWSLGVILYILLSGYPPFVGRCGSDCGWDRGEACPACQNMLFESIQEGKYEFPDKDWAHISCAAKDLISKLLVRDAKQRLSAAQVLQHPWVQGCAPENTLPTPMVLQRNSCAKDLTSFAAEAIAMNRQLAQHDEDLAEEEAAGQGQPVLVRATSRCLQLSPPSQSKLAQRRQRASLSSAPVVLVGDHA
Chain of Ephrin type-B receptor 3 (Homo sapiens) (P54753 whole entry): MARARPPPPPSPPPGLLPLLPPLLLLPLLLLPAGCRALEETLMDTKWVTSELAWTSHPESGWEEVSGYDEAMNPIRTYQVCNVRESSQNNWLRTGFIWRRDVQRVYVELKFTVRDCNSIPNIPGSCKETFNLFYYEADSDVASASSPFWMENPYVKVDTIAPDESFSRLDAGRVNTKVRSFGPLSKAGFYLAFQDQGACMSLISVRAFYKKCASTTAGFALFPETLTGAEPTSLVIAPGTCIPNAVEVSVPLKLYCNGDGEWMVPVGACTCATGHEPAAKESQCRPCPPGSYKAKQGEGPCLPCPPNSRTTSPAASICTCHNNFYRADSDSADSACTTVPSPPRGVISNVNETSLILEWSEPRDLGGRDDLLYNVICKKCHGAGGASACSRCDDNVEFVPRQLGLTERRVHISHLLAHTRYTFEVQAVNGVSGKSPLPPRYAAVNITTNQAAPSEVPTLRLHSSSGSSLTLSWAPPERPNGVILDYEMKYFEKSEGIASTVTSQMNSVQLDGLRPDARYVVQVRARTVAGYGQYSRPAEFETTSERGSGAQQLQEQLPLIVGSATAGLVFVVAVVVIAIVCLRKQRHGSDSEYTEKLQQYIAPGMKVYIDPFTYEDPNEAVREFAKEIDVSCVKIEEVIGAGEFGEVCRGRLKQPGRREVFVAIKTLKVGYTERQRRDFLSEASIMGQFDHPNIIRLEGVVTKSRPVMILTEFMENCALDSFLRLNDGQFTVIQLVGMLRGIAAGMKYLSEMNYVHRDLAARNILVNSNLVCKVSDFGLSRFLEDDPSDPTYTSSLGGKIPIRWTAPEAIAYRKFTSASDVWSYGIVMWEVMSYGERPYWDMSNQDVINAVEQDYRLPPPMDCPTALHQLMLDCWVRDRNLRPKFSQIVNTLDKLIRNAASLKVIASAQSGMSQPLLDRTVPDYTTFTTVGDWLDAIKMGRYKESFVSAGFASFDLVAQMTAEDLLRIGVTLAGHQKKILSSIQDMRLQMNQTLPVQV
Chain of Phosphatidylinositol 4,5-bisphosphate 3-kinase catalytic subunit alpha isoform (P42336 whole entry, looked up, the tested form may be a part, canonical isoform): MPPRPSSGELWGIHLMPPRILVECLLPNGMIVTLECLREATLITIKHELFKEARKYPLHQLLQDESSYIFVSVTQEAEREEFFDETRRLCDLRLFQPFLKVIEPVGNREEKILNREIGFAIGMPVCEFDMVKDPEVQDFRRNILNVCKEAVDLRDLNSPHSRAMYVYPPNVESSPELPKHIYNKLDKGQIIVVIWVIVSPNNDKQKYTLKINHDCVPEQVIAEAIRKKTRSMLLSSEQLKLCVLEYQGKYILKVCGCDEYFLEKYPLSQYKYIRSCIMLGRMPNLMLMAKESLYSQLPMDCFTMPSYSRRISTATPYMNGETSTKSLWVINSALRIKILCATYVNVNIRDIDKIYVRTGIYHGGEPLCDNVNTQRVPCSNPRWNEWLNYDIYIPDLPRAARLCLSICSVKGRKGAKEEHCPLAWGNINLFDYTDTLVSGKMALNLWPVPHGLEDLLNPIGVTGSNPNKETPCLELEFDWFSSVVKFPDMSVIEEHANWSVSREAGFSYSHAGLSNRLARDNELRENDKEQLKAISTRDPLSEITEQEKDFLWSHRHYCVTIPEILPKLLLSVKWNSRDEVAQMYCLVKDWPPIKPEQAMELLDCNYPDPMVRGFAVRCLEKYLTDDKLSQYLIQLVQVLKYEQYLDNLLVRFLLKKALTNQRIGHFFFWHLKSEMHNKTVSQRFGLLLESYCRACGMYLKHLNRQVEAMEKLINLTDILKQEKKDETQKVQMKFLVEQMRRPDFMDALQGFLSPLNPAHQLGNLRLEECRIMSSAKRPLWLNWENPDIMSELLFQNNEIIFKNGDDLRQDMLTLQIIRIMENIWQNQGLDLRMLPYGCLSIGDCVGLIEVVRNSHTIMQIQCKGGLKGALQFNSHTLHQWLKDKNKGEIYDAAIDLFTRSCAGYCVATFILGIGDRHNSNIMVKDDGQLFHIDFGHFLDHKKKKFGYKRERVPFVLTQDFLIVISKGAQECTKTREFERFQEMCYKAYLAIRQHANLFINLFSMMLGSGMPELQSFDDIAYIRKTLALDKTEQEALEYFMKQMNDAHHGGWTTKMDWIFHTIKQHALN
Chain of Tyrosine-protein kinase Fgr (Homo sapiens) (P09769 2-529 limits assumed): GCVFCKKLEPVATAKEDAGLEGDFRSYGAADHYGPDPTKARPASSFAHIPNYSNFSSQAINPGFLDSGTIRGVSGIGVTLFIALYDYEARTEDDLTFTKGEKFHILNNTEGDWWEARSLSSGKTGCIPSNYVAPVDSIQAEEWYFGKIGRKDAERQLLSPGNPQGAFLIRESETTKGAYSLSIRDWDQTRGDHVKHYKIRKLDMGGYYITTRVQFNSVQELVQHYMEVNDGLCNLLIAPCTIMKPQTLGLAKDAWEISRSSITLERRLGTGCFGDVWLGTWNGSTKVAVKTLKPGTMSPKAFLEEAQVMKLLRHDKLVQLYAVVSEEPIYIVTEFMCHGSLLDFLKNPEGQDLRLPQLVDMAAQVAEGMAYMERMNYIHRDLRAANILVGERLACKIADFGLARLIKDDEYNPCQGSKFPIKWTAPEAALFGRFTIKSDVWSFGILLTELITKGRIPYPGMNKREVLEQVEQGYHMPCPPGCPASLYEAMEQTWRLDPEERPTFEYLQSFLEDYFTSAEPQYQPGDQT
Chain of [Pyruvate dehydrogenase (acetyl-transferring)] kinase isozyme 4, mitochondrial (Homo sapiens) (Q16654 whole entry, looked up): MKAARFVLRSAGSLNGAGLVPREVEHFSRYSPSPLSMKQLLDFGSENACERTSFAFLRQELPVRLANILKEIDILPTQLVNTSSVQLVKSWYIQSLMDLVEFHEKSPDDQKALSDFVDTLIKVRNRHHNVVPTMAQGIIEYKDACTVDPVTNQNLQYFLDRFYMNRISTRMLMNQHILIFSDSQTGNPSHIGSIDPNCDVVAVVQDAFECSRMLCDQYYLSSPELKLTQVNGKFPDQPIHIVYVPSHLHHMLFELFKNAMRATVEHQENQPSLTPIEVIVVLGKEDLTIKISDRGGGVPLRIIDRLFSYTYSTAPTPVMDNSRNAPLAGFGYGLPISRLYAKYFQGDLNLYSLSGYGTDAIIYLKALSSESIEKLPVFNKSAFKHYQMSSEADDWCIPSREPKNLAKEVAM
Chain of Activin receptor type-1B (Homo sapiens) (P36896 whole entry): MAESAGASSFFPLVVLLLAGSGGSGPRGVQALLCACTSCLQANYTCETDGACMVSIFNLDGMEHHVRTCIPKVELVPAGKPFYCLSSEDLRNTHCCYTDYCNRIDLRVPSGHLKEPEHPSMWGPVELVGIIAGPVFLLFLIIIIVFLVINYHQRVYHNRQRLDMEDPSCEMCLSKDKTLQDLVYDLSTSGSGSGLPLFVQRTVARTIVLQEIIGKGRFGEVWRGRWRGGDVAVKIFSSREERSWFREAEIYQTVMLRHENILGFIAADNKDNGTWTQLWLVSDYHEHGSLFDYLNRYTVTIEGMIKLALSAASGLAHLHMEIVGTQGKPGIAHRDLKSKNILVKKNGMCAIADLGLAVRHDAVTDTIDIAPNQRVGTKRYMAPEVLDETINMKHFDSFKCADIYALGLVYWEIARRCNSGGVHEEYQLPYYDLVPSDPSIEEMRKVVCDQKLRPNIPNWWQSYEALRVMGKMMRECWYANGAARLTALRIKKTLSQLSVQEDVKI

COc1ccc(N2C(=O)COc3ccc(-c4cnc(OC)c(NS(=O)(=O)c5ccc(F)cc5)c4)cc32)cc1
bioavailability [1]: 24.1%
inhibition [2]: 5.02%
inhibition [3]: 9.02%
inhibition [4]: 3.81%
inhibition [5]: -4.54%
inhibition [6]: 0.44%
inhibition [7]: 0.16%
IC50 [8]: 13100 nM
inhibition [9]: -0.05%
inhibition [10]: 21.1%
inhibition [11]: -5.25%
inhibition [12]: 9.71%
inhibition [13]: -2.91%
inhibition [14]: 0.08%
inhibition [15]: -1.93%
inhibition [16]: -1.65%
inhibition [17]: -3.23%
IC50 [18]: 0.63 nM
inhibition [19]: 16.6%
inhibition [20]: 4%
inhibition [21]: -4.91%
inhibition [22]: 13.9%
TGI [23]: Dose-dependent effect
inhibition [24]: -8.14%
inhibition [25]: -1.64%
inhibition [26]: 13.7%
IC50 [27]: 13.9 nM
inhibition [28]: 2.43%
inhibition [29]: 5.1%
inhibition [30]: 18.2%
